Measurements as given in patent publication US7135481B2, “Naphthalimide compositions and uses thereof” (ChemGenex Pharmaceuticals, Inc., priority 2000, dated 2006).

Assays:
[1] = tested on: RIF-1 murine fibrosarcoma; test: Example 2: RIF-1 tumor growth delay (TVQT), amonafide alone and with other chemotherapeutics; conditions: for TVQT: single agent, mean ± SE
Description: Animals: Female C3H mice (Charles River Laboratories, Holister, Calif.), approximately 3 months old, were used for the study. The average body weight was approximately 25 g. Animals were maintained in isolator cages on a 12-hour light-and-dark cycle. Food and water were available ad libitum.
Tumors: The RIF-1 murine fibrosarcoma cell line was maintained in in vitro culture (Waymouth medium supplemented with 20% fetal bovine serum) at 37 C. in a humidified 5% CO2 incubator. Log-phase RIF-1 cells were trypsinized and harvested from cell culture flasks to yield a concentration of 4×10^6 cells/mL, then injected intradermally in a volume of 50 μL (equivalent to 2×10^5 cells per injection) into both flanks of each mouse. Nine days later, when tumors reached approximately 100 mm^3 in size, the animals were randomized to different treatment groups.
Four to five animals were assigned to each treatment group. The intrperitoneal injection volume was 100 μL. The oral administration volume was 100 μL. Combination treatments using two test agents were administered as two separate injections, with the second one following the first either immediately or after 30 minutes.
Tumor volume (cubic millimeters, mm^3) was calculated according to the formula: V=π/6×D1×D2×D3 in which D1–3 are perpendicular diameters measured in millimeters (mm).
Tumor volume quadrupling time (TVQT), defined as the time required for a tumor to grow to four times (4×) its initial volume (at the time of treatment), was used as a study endpoint. The TVQT was determined for each treatment group and expressed in days as the mean±standard error (SE).

[2] = tested on: murine fibrosarcomas (RIF-1 cells); test: Example 3: RIF-1 tumor growth delay (TGD), amonafide with camptothecin, genistein or rosmarinic acid; assay type: in vivo, C3H mice; conditions: single agent
Description: Transplantable experimental murine fibrosarcomas (2×10^5 RIF-1 cells) were grown intradermally in the flanks of 3 month old female C3H mice (Charles River, Holister, Calif.). When the tumors reached a volume of −100 mm^3, the mice were randomly assigned to each experimental group (4 mice per group).
Amonafide was manufactured by Penta for ChemGenex and was made to the appropriate concentration in saline. […] The compositions were injected systemically (i.e., intraperitoneally, i.p.), in a volume of 100 μl. For the treatment of groups 3, 5 and 7, amonafide, was injected immediately prior to the injection of camptothecin, genistein or rosmarinic acid. After treatment, the growth of the tumors was monitored three times per week by caliper measurements of three perpendicular diameters of the tumor and calculation of tumor volume from the formula: V=π/6×D1×D2×D3, where D1-3 represents tumor diameters, in mm.
The data is also expressed as the tumor growth delay (TGD) median which is the median days to 4× the tumor volume from the initial treatment day, and as the delay which is the median days to 4× of the treated group minus the median days to 4× of the control group. The T/C ratio is the ratio of days to 4× of the treated tumors over the days to 4× of the untreated control tumors. Increasing values indicate increased antitumor response.
The tumors were followed until they reached 4 times their Day 0 treatment volume or up to 30 days after treatment (tumor growth delay, TGD), whichever came first. The data is also expressed as the ratio of the tumor growth delay of the treated tumor (TGD) over the untreated control group (CTGD). Increasing values of this ratio indicate increased antitumor response.

[3] = tested on: murine fibrosarcomas (RIF-1 cells); test: Example 1: tumor growth delay (TVQT) of RIF-1 fibrosarcoma, amonafide with cisplatin; assay type: in vivo, C3H mice; conditions: single agent
Description: When the tumors reached a volume of approximately 100 mm3, the mice were randomly assigned to each experimental group (4 mice per group).
The chemopotentiator, amonafide, was obtained from NCI and was made to the appropriate concentration in DMSO. […] The compositions were injected systemically (i.e., intraperitoneally, i.p.), in a volume of 100 microliters. For the treatment of group 3, the chemopotentiator, amonafide, was injected 30 minutes prior to the injection of cisplatin. After treatment, the growth of the tumors was monitored three times per week by caliper measurements of three perpendicular diameters of the tumor and calculation of tumor volume from the formula: V=π/6×D1×D2×D3, where D1-3 represents tumor diameters, in mm.
The tumors were followed until they reached a size of four times their day zero treatment volume (TVQT), or up to 30 days after treatment, whichever came first. The data is expressed as the “tumor volume quadrupling time” (TVQT) mean and as the “delay.” Mean TVQT is the mean days required for individual tumors to grow to four times the tumor volume at the initial treatment day. The “delay” is the median of days required for a tumor to grow to four times the mean size of the treated group, minus the median of days required to grow to four times the mean size of the control group. The data is also expressed as the ratio of the tumor volume quadrupling time of the treated tumor over the untreated control group (TVQT/CTVQT). Increasing values of this ratio indicate increased antitumor response.

[4] = Example 2: animal deaths after treatment; assay type: in vivo, C3H mice; conditions: formulated in DMSO at 12.5 mg/mL, IP
Description: The average body weight was approximately 25 g. […] Food and water were available ad libitum.
The intrperitoneal injection volume was 100 μL. The oral administration volume was 100 μL.

`O=c1[nH]cc(F)c(=O)[nH]1` [5-Fluorouracil] gave a TVQT ([1]; 15 mg/Kg IP) of 6.7 days, a TVQT ([1]; 15 mg/Kg IP, listed as Fluorouracil/Saline) of 6.7 ± 0.4 days and a TVQT ([1]; 30 mg/Kg IP) of 13.6 days. It also gave a TVQT ([1]; 30 mg/Kg IP, listed as Fluorouracil/Saline) of 13.6 ± 1.9 days.

In the case of `CN(C)CCN1C(=O)c2cccc3cc(N)cc(c23)C1=O` [Amonafide, 5-amino-2-[(dimethylamine)ethyl]-1H-benz[de-]isoquinoline-1,3-(2H)-dione], the TVQT ([1]; 30 mg/Kg IP) is reported as 7.3 days, the TVQT ([1]; 30 mg/Kg IP, listed as Amonafide-Penta/Saline) is reported as 7.3 ± 0.2 days and the “antitumor activity, summary in words (versus amonafide alone and the individual test agents)” value ([1]; intraperitoneal amonafide, alone or in combination) is reported as “had antitumor activity”. The “Delay” value ([2]; 30 mg/kg i.p.) was -0.36 days, the “Median (TGD)” value ([2]; 30 mg/kg i.p.) was 7.0 days and the “TGD ± S.E.” value ([2]; 30 mg/kg i.p.) was 7.0 ± 0.4 days. For the same compound, the TGD/CTGD ([2]; 30 mg/kg i.p.) was 0.9, the “Delay” value ([3]; 50 mg/kg i.p.) was 2.94 days and the “Mean TVQT ± S.E.” value ([3]; 50 mg/kg i.p.) was 9.7 ± 0.6 days. For the same compound, the “Median (TVQT)” value ([3]; 50 mg/kg i.p.) was 9.0 days, the TVQT/CTVQT ([3]; 50 mg/kg i.p.) was 1.5 and the animal deaths [4] was “Two of four mice died”.

In the case of `CC[C@@]1(O)C(=O)OCc2c1cc1n(c2=O)Cc2cc3ccccc3nc2-1` [Camptothecin], the “Delay” value ([2]; 6 mg/kg i.p.) is reported as 5.45 days, the “Median (TGD)” value ([2]; 6 mg/kg i.p.) is reported as 12.8 days and the “TGD ± S.E.” value ([2]; 6 mg/kg i.p.) is reported as 12.9 ± 0.5 days. For the same compound, the TGD/CTGD ([2]; 6 mg/kg i.p.) was 1.7.

In the case of `N.N.[Cl][Pt][Cl]` [Cisplatin, cis-diamminedichloroplatinum II], the TVQT ([1]; 4 mg/Kg IP) is reported as 9.2 days, the TVQT ([1]; 4 mg/Kg IP, listed as Cisplatin/WFI) is reported as 9.2 ± 0.4 days and the “Delay” value ([3]; 4 mg/kg i.p.) is reported as 2.10 days. For the same compound, the “Mean TVQT ± S.E.” value ([3]; 4 mg/kg i.p.) was 8.4 ± 0.3 days, the “Median (TVQT)” value ([3]; 4 mg/kg i.p.) was 8.1 days and the TVQT/CTVQT ([3]; 4 mg/kg i.p.) was 1.3.

In the case of `COc1cc2c(c(OC)c1OC)-c1ccc(OC)c(=O)cc1[C@@H](NC(C)=O)CC2` [Colchicine, colchicine], the TVQT ([1]; 10 mg/Kg PO) is reported as 6.3 days and the TVQT ([1]; 10 mg/Kg PO, listed as Colchicine/Saline) is reported as 6.3 ± 0.3 days.

For `COc1cc(/C=C/C(=O)CC(=O)/C=C/c2ccc(O)c(OC)c2)ccc1O` [Curcumin], the TVQT ([1]; 25 mg/Kg IP) was 9.7 days and the TVQT ([1]; 25 mg/Kg IP, listed as Curcumin/DMSO) was 9.7 ± 1.1 days.

In the case of `COc1cc([C@@H]2c3cc4c(cc3[C@@H](O[C@@H]3O[C@@H]5CO[C@@H](C)O[C@H]5[C@H](O)[C@H]3O)[C@H]3COC(=O)[C@H]23)OCO4)cc(OC)c1O` [Etoposide], the TVQT ([1]; 10 mg/Kg IP) is reported as 8.5 days and the TVQT ([1]; 10 mg/Kg IP, listed as Etoposide/Saline) is reported as 8.5 ± 0.5 days.

With `O=c1c(-c2ccc(O)cc2)coc2cc(O)cc(O)c12` [Genistein] the “Delay” value ([2]; 60 mg/kg i.p.) was 0.78 days, the “Median (TGD)” value ([2]; 60 mg/kg i.p.) was 8.1 days and the “TGD ± S.E.” value ([2]; 60 mg/kg i.p.) was 7.9 ± 0.4 days. It also gave a TGD/CTGD ([2]; 60 mg/kg i.p.) of 1.1.

`COC(=O)C[C@](O)(CCCC(C)(C)O)C(=O)O[C@@H]1C(OC)=C[C@]23CCCN2CCc2cc4c(cc2[C@H]13)OCO4` [Homoharringtonine, homoharringtonine] showed a TVQT ([1]; 4 mg/Kg IP, listed as Homoharringtonine/WFI) of 8.5 ± 0.5 days and a TVQT ([1]; 4 mg/Kg IP, listed as homoharringtonie) of 8.5 days.

`CC(=O)O[C@H]1C(=O)[C@@]2(C)[C@H]([C@H](OC(=O)c3ccccc3)[C@]3(O)C[C@H](OC(=O)[C@H](O)[C@@H](NC(=O)c4ccccc4)c4ccccc4)C(C)=C1C3(C)C)[C@]1(OC(C)=O)CO[C@@H]1C[C@@H]2O` [Paclitaxel] gave a TVQT ([1]; 10 mg/Kg IP) of 7.9 days and a TVQT ([1]; 10 mg/Kg IP, listed as Paclitaxel/Cremaphor EL) of 7.9 ± 0.3 days.

For `O=C(/C=C/c1ccc(O)c(O)c1)O[C@H](Cc1ccc(O)c(O)c1)C(=O)O` [Rosmarinic Acid], the “Delay” value ([2]; 20 mg/kg i.p.) was 0.46 days, the “Median (TGD)” value ([2]; 20 mg/kg i.p.) was 7.8 days and the “TGD ± S.E.” value ([2]; 20 mg/kg i.p.) was 8.4 ± 0.5 days. For the same compound, the TGD/CTGD ([2]; 20 mg/kg i.p.) was 1.1.

In the case of `CC[C@]1(O)C[C@@H]2CN(CCc3c([nH]c4ccccc34)[C@@](C(=O)OC)(c3cc4c(cc3OC)N(C)[C@H]3[C@@](O)(C(=O)OC)[C@H](OC(C)=O)[C@]5(CC)C=CCN6CC[C@]43[C@@H]65)C2)C1` [Vinblastine], the TVQT ([1]; 2 mg/Kg IP) is reported as 8.6 days and the TVQT ([1]; 2 mg/Kg IP, listed as Vinblastine/Saline) is reported as 8.6 ± 0.4 days.
